For one assay, the system named is drug-naive rats. Description: Locomotor activity in drug-naive rats (in vivo behaviour). Set-up: species or system rat. The settings on record: recorded for 60 minutes, ± SEM. An excerpt: Photobeam sensors are spaced 2.5 cm apart.
Assay [1] has as its system DOPAC (3,4-dihydroxyphenylacetic acid) in the rat striatum. The experiment in a line: Increase of DOPAC in the rat striatum after systemic administration (in vivo neurochemistry). The settings on record: estimated ED50 on increase of DOPAC in rat striatum, systemic administration (s.c.), curve fitting; for ED50: sc. An excerpt:
After the behavioural activity sessions, the rats are decapitated and their brains rapidly taken out and put on an ice-cold petri-dish. The limbic forebrain, the striatum, the frontal cortex and the remaining hemispheral parts of each rat are dissected and frozen. Each brain part is subsequently analyzed with respect to its content of monoamines and their metabolites.
The monoamine transmitter substances (NA (noradrenaline), DA (dopamine), 5-HT (serotonin)) as well as their amine (NM (normethanephrine), 3-MT (3-methoxytyramine)) and acid (DOPAC (3,4-dihydroxyphenylacetic acid), 5-HIAA (5-hydroxyindoleacetic acid), HVA (homovanillic acid)) metabolites are quantified in brain tissue homogenates by HPLC separations and electrochemical detection.
The analytical method is based on two chromatographic separations dedicated for amines or acids. Two chromatographic systems share a common auto injector with a 10-port valve and two sample loops for simultaneous injection on the two systems. Both systems are equipped with a reverse phase column (Luna C18(2), dp 3 μm, 50*2 mm i.d., Phenomenex) and electrochemical detection is accomplished at two potentials on glassy carbon electrodes (MF-1000, Bioanalytical Systems, Inc.). The column effluent is passed via a T-connection to the detection cell or to a waste outlet. This is accomplished by two solenoid valves, which block either the waste or detector outlet. By preventing the chromatographic front from reaching the detector, better detection conditions are achieved. The aqueous mobile phase (0.4 ml/min) for the acid system contains citric acid 14 mM, sodium citrate 10 mM, MeOH 15% (v/v) and EDTA 0.1 mM. Detection potentials relative to Ag/AgCl reference are 0.45 and 0.60V. The aqueous ion pairing mobile phase (0.5 ml/min) for the amine system contains citric acid 5 mM, sodium citrate 10 mM, MeOH 9% (v/v), MeCN 10.5% v/v), decane sulfonic acid 0.45 mM, and EDTA 0.1 mM. Detection potentials relative to Ag/AgCl reference are 0.45 and 0.65V.
ED50 values for the increase of DOPAC in striatum are calculated by curve fitting.

Structures are written as SMILES.

As to `CCCN(CCC)CC1COc2ccc(S(C)(=O)=O)cc2O1` (stereo not shown) [Example 16, N-{[7-(METHYLSULFONYL)-2,3-DIHYDRO-1,4-BENZODIOXIN-2-YL]METHYL}-N-PROPYLPROPAN-1-AMINE], the Locomotor activity in the assay on drug-naive rats (3.7 μmol/kg) is 13645 ± 3301 counts/60 min; in the assay on drug-naive rats (11 μmol/kg), 11807 ± 2628 counts/60 min; in the assay with drug-naive rats (33 μmol/kg) it was 18642 ± 2454 counts/60 min. For the same compound, the ED50 (usually the midpoint of the dose-response relation) in assay [1] was 29 µmol/kg.

On to `CCNC[C@H]1COc2c(F)cc(S(C)(=O)=O)cc2O1` [Example 19, N-{[(2S)-5-FLUORO-7-(METHYLSULFONYL)-2,3-DIHYDRO-1,4-BENZODIOXIN-2-YL]METHYL}ETHANAMINE], for which the Locomotor activity with drug-naive rats (3.7 μmol/kg) amounted to 6123 ± 710 counts/60 min; with drug-naive rats (11 μmol/kg) it was 3191 ± 387 counts/60 min; with drug-naive rats (33 μmol/kg), 1936 ± 370 counts/60 min. Moreover, in assay [1], the ED50 was below 3.7 µmol/kg.

For `CCCNC[C@H]1COc2c(F)cc(S(C)(=O)=O)cc2O1` [Example 21, N-{[(2S)-5-FLUORO-7-(METHYLSULFONYL)-2,3-DIHYDRO-1,4-BENZODIOXIN-2-YL]METHYL}PROPAN-1-AMINE], the values for the Locomotor activity with drug-naive rats (3.7 μmol/kg), in the assay on drug-naive rats (11 μmol/kg) and in the assay on drug-naive rats (33 μmol/kg) were 12080 ± 1292 counts/60 min, 8930 ± 631 counts/60 min and 4430 ± 775 counts/60 min, respectively. In addition, in assay [1], the ED50 is 6.8 µmol/kg.

As to `CCCNCC1CCc2ccc(S(C)(=O)=O)cc2O1` (stereo not shown) [Example 23, N-{[7-(METHYLSULFONYL)-3,4-DIHYDRO-2H-CHROMEN-2-YL]METHYL}-N—PROPAN-1-AMINE], the Locomotor activity is listed as 9551 ± 1284 counts/60 min with drug-naive rats (3.7 μmol/kg), 9722 ± 1247 counts/60 min in the assay on drug-naive rats (11 μmol/kg) and 7700 ± 1039 counts/60 min in the assay on drug-naive rats (33 μmol/kg). For the same compound, the “ED50 DOPAC*” value in assay [1] was 14 µmol/kg.

These data come from patent US8524766B2, “Modulators of dopamine neurotransmission” (NSAB, Filial af Neurosearch Sweden AB, Sverige, priority 2008, dated 2013).
